Where only a bound is given, the exact number is not on record here.

The source of these data is patent US11590116B2 (THERAVANCE BIOPHARMA R&D IP, LLC, priority 2019, dated 2023).

The subject of assay [1] is TGF-β-stimulated SMAD3 phosphorylation in BEAS-2B cells. The experiment in a line: Cellular ALK5 potency assay, inhibition of TGF-β stimulated pSMAD3 formation in BEAS-2B cells. The assay is classed as cell-based. The settings on record: Homo sapiens; inhibition of TGF-β stimulated pSMAD3 formation, BEAS-2B cells; read-out: BEAS2B pIC50 (converted). The procedure:
The potency of compounds of the present disclosure for inhibition of TGF-β-stimulated SMAD3 phosphorylation was measured in BEAS-2B cells, a human lung epithelial cell line. TGF-β signals through activin receptor-like kinase 5 (ALK5) immediately prior to SMAD3 phosphorylation.
BEAS-2B cells were grown using 50% DMEM (Life Technologies) and 50% F-12 (Life Technologies) media, supplemented with 10% Fetal Bovine Serum (ATCC), 25 mM HEPES (Life Technologies), and 1× Pen-Strep (Life Technologies). Cells were cultured in a humidified incubator set at 37° C., 5% CO2, and trypsonized using 0.25% Trypsin with 0.5% polyvinylpyrrolidone (PVP).
For the assay, BEAS-2B cells were seeded at 7,500 cells/well (25 μL/well) in a 384-well plate and cultured overnight. Before dosing, growth media was aspirated and the wells were rinsed with HBSS Buffer (HBSS with Calcium and Magnesium, Life Technologies) supplemented with 25 mM HEPES (Life Technologies) and 1% Bovine Serum Albumin (Roche). Compounds were serially diluted in DMSO, then further diluted with supplemented HBSS Buffer (50 μL/well) to create a compound plate 3× of the final assay concentration, at 0.3% DMSO. The diluted compounds were then added to the cells (8 μL/well) and incubated at 37° C., 5% CO2 for 1 hour. After the compound incubation, TGF-β (R&D Systems) reconstituted in supplemented HBSS Buffer was added to the cells ([…], final concentration 10 ng/mL) and incubated for a further 30 minutes, after which the cells were immediately lysed with AlphaLISA lysis buffer (PerkinElmer). AlphaLISA Acceptor and Detector beads (PerkinElmer) were added 2 hours apart, then incubated overnight to be read the next day. The potency of the compound was determined through analysis of dose-dependent quantified changes in pSMAD3 signal from baseline (non-compound treated TGF-β stimulated cells). Data are expressed as pIC50 (negative decadic logarithm IC50) values.

Assay [2] deals with T1, recombinant human ALK5 (TGF-βR1) protein (Homo sapiens, UniProt P36897).
T1 construct: purchased Life Technologies PR9075A
T1 sequence (P36897 34-503): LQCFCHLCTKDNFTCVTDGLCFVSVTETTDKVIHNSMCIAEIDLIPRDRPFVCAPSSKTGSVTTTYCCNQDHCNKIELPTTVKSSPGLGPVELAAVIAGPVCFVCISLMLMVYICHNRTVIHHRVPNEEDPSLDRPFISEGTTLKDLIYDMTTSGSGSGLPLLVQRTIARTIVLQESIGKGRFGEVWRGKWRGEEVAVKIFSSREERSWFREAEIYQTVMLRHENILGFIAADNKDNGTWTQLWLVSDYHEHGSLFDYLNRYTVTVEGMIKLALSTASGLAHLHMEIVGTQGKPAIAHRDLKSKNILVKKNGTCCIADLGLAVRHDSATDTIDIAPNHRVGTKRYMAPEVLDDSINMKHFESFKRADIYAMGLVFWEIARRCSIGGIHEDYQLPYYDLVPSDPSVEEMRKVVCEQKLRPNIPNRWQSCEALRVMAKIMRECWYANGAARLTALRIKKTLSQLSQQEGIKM
The experiment in a line: Biochemical ALK5 (TGF-βR1) assay to measure pKi (LANCE Ultra ULight kinase assay). Particulars: apparent pKi from pIC50 by Cheng-Prusoff, read-out: ALK5 pKi (converted). The procedure:
The assays were performed in a 384-well plate (24 columns×16 wells/rows). An Echo® 550 Liquid Handler (Labcyte) was used to prepare various intermediate concentrations of compounds of the present disclosure in 100% DMSO. From the intermediate concentrations, a range of concentrations (from 10 μM to 25 pM corresponding to volumes up to 105 nL) were prepared and ejected into a final assay plate to be used to create individual dose response curves for each of the subject compounds. To a separate column within the assay plate, 105 nL of DMSO in each well was used to establish a maximum assay signal.
With a multidrop dispenser, 8 μL of enzyme mixture (1.25× final) was added to each well. […] The plate was then sealed with an adhesive seal and allowed to equilibrate for 60 minutes at room temperature.
Next, 2 μL of 125 μM ATP (5× final, 125 μM ATP prepared in assay buffer with 2 mM DTT) was added to the incubated mixtures, covered with a MicroClime® Environmental Lid (Product No. LLS-0310, Labcyte) and immediately transferred to 37° C. The reactions were allowed to proceed at 37° C. for 60 minutes before terminating with the addition of 10 μL of detection antibody (LANCE® (lanthanide chelate excite) Ultra Europium-anti-phospo-DNA Topoisomerase 2-alpha (Thr1342)) in detection mixture (12 mM EDTA, 4 nM detection antibody prepared in detection buffer (50 mM Tris-HCl, 150 mM NaCl, 0.5% BSA (Fraction V), pH 7.0)) at room temperature. The plate was then read on a Perkin Elmer EnVision Plate Reader using europium specific reader settings with excitation and emission wavelengths set to 320 or 340 nm and 665 nm, respectively.
For dose-response analyses, percent inhibition versus compound concentrations were plotted, and pIC50 values were determined from a 4-parameter robust fit model with GraphPad Prism V5 Software (GraphPad Software, Inc., La Jolla, Calif.). This model obtains pIC50 values by fitting the sigmoidal dose-response (variable slope) equation to the data. Results were expressed as pIC50 (negative logarithm of IC50) and subsequently converted to pKi (negative logarithm of dissociate constant, K) using the Cheng-Prusoff equation. The higher the value of pKi (lower value of Ki), the greater the inhibition of ALK5 activity.
A general note: TR-FRET usually uses a lanthanide donor and a delayed reading to cut background.

With `Cc1cccc(-c2[nH]cnc2-c2ccc3ncc(-c4csc(C(=O)O[C@H]5C[C@@H](N)C5)c4)cc3c2)n1` [Compound 1243, (3-aminocyclobutyl) 4-[6-[5-(6-methyl-2-pyridyl)-1H-imidazol-4-yl]-3-quinolyl]thiophene-2-carboxylate], in assay [1], the IC50 was 25.1 to 158 nM. For the same compound, the Ki in assay [2] is under 0.0316 nM.
For `Cc1cccc(-c2[nH]cnc2-c2ccc3ncc(NC(=O)C4CNC4)cc3c2)n1` [Compound 579, N-[6-[5-(6-methyl-2-pyridyl)-1H-imidazol-4-yl]-3-quinolyl]azetidine-3-carboxamide] the same measures were 1580 to 10000 nM and 0.0398 to 0.316 nM.
Consider `Cc1cccc(-c2[nH]cnc2-c2ccc3ncc(-c4csc(C(=O)OC[C@@H]5CCCN5)c4)cc3c2)n1` [Compound 1183, [(2S)-pyrrolidin-2-yl]methyl 4-[6-[5-(6-methyl-2-pyridyl)-1H-imidazol-4-yl]-3-quinolyl]thiophene-2-carboxylate], for which the IC50 in assay [1] was 25.1 to 158 nM. Besides, the Ki in assay [2] was under 0.0316 nM.
For `Cc1cccc(-c2[nH]ncc2-c2ccc3ncc(C(=O)O[C@H]4CCNC4)cc3c2)n1` [Compound 1218, [(3S)-pyrrolidin-3-yl]6-[5-(6-methyl-2-pyridyl)-1H-pyrazol-4-yl]quinoline-3-carboxylate] the same measures were 25.1 to 158 nM and 0.0398 to 0.316 nM.
Turning to `Cc1cccc(-c2[nH]cnc2-c2ccc3nccc(C(=O)OCC4CNC4)c3c2)n1` [Compound 1038, azetidin-3-ylmethyl 6-[5-(6-methyl-2-pyridyl)-1H-imidazol-4-yl]quinoline-4-carboxylate], the IC50 in assay [1] was 25.1 to 158 nM. The Ki in assay [2] was 0.398 to 3.16 nM.
As to `Cc1cccc(-c2[nH]cnc2-c2ccc3ncc(N4CCC(NC(=O)[C@@H]5CCCN5)CC4)cc3c2)n1` [Compound 388, (2S)-N-[1-[6-[5-(6-methyl-2-pyridyl)-1H-imidazol-4-yl]-3-quinolyl]-4-piperidyl]pyrrolidine-2-carboxamide], the IC50 in assay [1] was 200 to 1260 nM. For the same compound, the Ki in assay [2] was 0.0398 to 0.316 nM.
For `Cc1nc(-c2n[nH]cc2-c2ccc3ncc(N4CCCNCC4)cc3c2)ccc1F` [Compound 209, 3-(1,4-diazepan-1-yl)-6-[3-(5-fluoro-6-methyl-2-pyridyl)-1H-pyrazol-4-yl]quinoline] the same measures were 25.1 to 158 nM and 0.0398 to 0.316 nM.
For `Cc1cccc(-c2[nH]cnc2-c2ccc3ncc(-c4ccc(C(=O)OC5CCNCC5)s4)cc3c2)n1` [Compound 1010, piperidin-4-yl 5-(6-(5-(6-methylpyridin-2-yl)-1H-imidazol-4-yl)quinolin-3-yl)thiophene-2-carboxylate] the same measures were 25.1 to 158 nM and 0.0398 to 0.316 nM.
For `Cc1cccc(-c2nnn(Cc3ccccc3)c2-c2ccc3ncc(-c4cn[nH]c4)cc3n2)n1` [Compound 170, 2-[3-benzyl-5-(6-methyl-2-pyridyl)triazol-4-yl]-7-(1H-pyrazol-4-yl)-1,5-naphthyridine] the same measures were 25.1 to 158 nM and 0.0398 to 0.316 nM.
As to `Cc1cccc(-c2[nH]cnc2-c2ccc3ncc(-c4cnc(C(=O)O[C@H]5CCNC5)nc4)cc3c2)n1` [Compound 1072, [(3S)-pyrrolidin-3-yl] 5-[6-[5-(6-methyl-2-pyridyl)-1H-imidazol-4-yl]-3-quinolyl]pyrimidine-2-carboxylate], the IC50 in assay [1] was 200 to 1260 nM. In assay [2], the Ki is 0.0398 to 0.316 nM.
For `Cc1cccc(-c2n[nH]cc2-c2ccc3ncc(N4C[C@@H](C)N(C)C[C@H]4C)cc3n2)n1` (racemic) [Compound 296, 2-[3-(6-methyl-2-pyridyl)-1H-pyrazol-4-yl]-7-[rac-(2R,5R)-2,4,5-trimethylpiperazin-1-yl]-1,5-naphthyridine] the same measures were 25.1 to 158 nM and 0.0398 to 0.316 nM.
For `Cc1cccc(-c2n[nH]cc2-c2ccc3ncc(-c4cn(Cc5cccnc5)nn4)cc3n2)n1` [Compound 35, 2-[3-(6-methyl-2-pyridyl)-1H-pyrazol-4-yl]-7-[1-(3-pyridylmethyl)triazol-4-yl]-1,5-naphthyridine] the same measures were under 20 nM and 0.0398 to 0.316 nM.
